Reference: PubChem BioAssay (NCI)
Where “and” joins values, the source holds several entries; their conditions need not be identical. Equal values may be shown once.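 These data come from cells grown in 96-well plates and exposed to compound for 48 hours at five concentrations. GI50 is the concentration that inhibits growth by half. TGI: concentration producing complete growth inhibition.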

Columns and labels:
Test in all cases: growth of human tumour cells (NCI), 48 h
786-0 renal = tested on: 786-0 renal
NCI/ADR-RES ovarian = tested on: NCI/ADR-RES ovarian
HCT-116 colon = tested on: HCT-116 colon
CAKI-1 renal = tested on: CAKI-1 renal
HT29 colon = tested on: HT29 colon
OVCAR-4 ovarian = tested on: OVCAR-4 ovarian
KM12 colon = tested on: KM12 colon
TK-10 renal = tested on: TK-10 renal
HCT-15 colon = tested on: HCT-15 colon
SF-268 CNS = tested on: SF-268 CNS

With `COc1cc(/C=C/c2ccnc3ccccc23)cc(OC)c1OC` the GI50 (786-0 renal) was 4.42 µM, the TGI (786-0 renal) was 28.2 µM and 61.6 µM and the GI50 (NCI/ADR-RES ovarian) was 1.25 µM. For the same molecule, the TGI (NCI/ADR-RES ovarian) was 9.32 µM and 4.98 µM, the GI50 (HCT-116 colon) was 2.88 µM and the TGI (HCT-116 colon) was 12.1 µM and 18.5 µM. For the same molecule, the GI50 (CAKI-1 renal) was 1.89 µM, the TGI (CAKI-1 renal) was 20.8 µM and 26.8 µM and the GI50 (HT29 colon) was 1.72 µM. For the same molecule, the GI50 (OVCAR-4 ovarian) was 4.41 µM, the TGI (OVCAR-4 ovarian) was 45.5 µM and > 100 µM and the GI50 (KM12 colon) was 1.34 µM. The TGI (KM12 colon) was 15.9 µM and 11.1 µM, the TGI (TK-10 renal) was 30.6 µM and > 100 µM and the GI50 (HCT-15 colon) was 1.92 µM. For the same molecule, the TGI (HCT-15 colon) was > 100 µM and 70.1 µM and the TGI (SF-268 CNS) was 19.8 µM and 47.6 µM.

`C/C(=N\NC(=S)N1CCN(c2ccccn2)CC1)c1cccc2cccnc12` showed a TGI (786-0 renal) greater than 100 µM, a TGI (NCI/ADR-RES ovarian) of 15.4 µM and a TGI (HCT-116 colon) of 6.71 µM. For the same molecule, the TGI (CAKI-1 renal) was greater than 100 µM, the TGI (HT29 colon) was 21.2 µM and the TGI (OVCAR-4 ovarian) was greater than 100 µM. The TGI (KM12 colon) was greater than 100 µM, the TGI (TK-10 renal) was greater than 100 µM and the TGI (HCT-15 colon) was greater than 100 µM. It also gave a TGI (SF-268 CNS) greater than 100 µM.

For `CC(C)(C)OC(=O)N1Cc2cc3ccccc3nc2C1CO` (stereo unspecified), the GI50 (786-0 renal) was greater than 100 µM, the TGI (786-0 renal) was greater than 100 µM and the GI50 (NCI/ADR-RES ovarian) was greater than 100 µM. For the same molecule, the TGI (NCI/ADR-RES ovarian) was greater than 100 µM, the GI50 (HCT-116 colon) was greater than 100 µM and the TGI (HCT-116 colon) was greater than 100 µM. For the same molecule, the GI50 (CAKI-1 renal) was greater than 100 µM, the TGI (CAKI-1 renal) was greater than 100 µM and the GI50 (HT29 colon) was greater than 100 µM. It also gave a TGI (HT29 colon) greater than 100 µM, a GI50 (OVCAR-4 ovarian) greater than 100 µM and a TGI (OVCAR-4 ovarian) greater than 100 µM. It also gave a GI50 (KM12 colon) greater than 100 µM, a TGI (KM12 colon) greater than 100 µM and a GI50 (TK-10 renal) greater than 100 µM. For the same molecule, the TGI (TK-10 renal) was greater than 100 µM, the GI50 (HCT-15 colon) was greater than 100 µM and the TGI (HCT-15 colon) was greater than 100 µM. It also gave a GI50 (SF-268 CNS) greater than 100 µM and a TGI (SF-268 CNS) greater than 100 µM.

`COc1cccc(-c2nn(-c3ccccc3)cc2-c2ccnc(NCCCNS(=O)(=O)c3ccc(C(F)(F)F)cc3)c2)c1` was tested, and the GI50 (786-0 renal) was 4.6 µM, the TGI (786-0 renal) was greater than 100 µM and the GI50 (NCI/ADR-RES ovarian) was 3.86 µM. It also gave a TGI (NCI/ADR-RES ovarian) greater than 100 µM, a GI50 (HCT-116 colon) of 4.18 µM and a TGI (HCT-116 colon) greater than 100 µM. For the same molecule, the GI50 (CAKI-1 renal) was 5.76 µM, the TGI (CAKI-1 renal) was greater than 100 µM and the GI50 (HT29 colon) was 3.21 µM. The GI50 (OVCAR-4 ovarian) was 4.36 µM, the TGI (OVCAR-4 ovarian) was greater than 100 µM and the GI50 (KM12 colon) was 4.02 µM. The TGI (KM12 colon) was greater than 100 µM, the GI50 (TK-10 renal) was 9.25 µM and the TGI (TK-10 renal) was greater than 100 µM. It also gave a GI50 (HCT-15 colon) of 4.08 µM, a TGI (HCT-15 colon) greater than 100 µM and a GI50 (SF-268 CNS) of 6.88 µM. For the same molecule, the TGI (SF-268 CNS) was greater than 100 µM.

`Cc1nn(-c2ccccc2)c2nc(C)n(-c3ccc(Br)cc3)c(=O)c12` showed a GI50 (786-0 renal) of 0.542 µM, a TGI (786-0 renal) greater than 100 µM and a GI50 (NCI/ADR-RES ovarian) of 0.449 µM. For the same molecule, the TGI (NCI/ADR-RES ovarian) was greater than 100 µM, the GI50 (HCT-116 colon) was 0.425 µM and the TGI (HCT-116 colon) was greater than 65.4 µM. The GI50 (CAKI-1 renal) was 0.416 µM, the TGI (CAKI-1 renal) was greater than 100 µM and the GI50 (HT29 colon) was 0.355 µM. It also gave a TGI (HT29 colon) greater than 31.6 µM, a GI50 (OVCAR-4 ovarian) of 1.56 µM and a TGI (OVCAR-4 ovarian) greater than 100 µM. The GI50 (KM12 colon) was 0.521 µM, the TGI (KM12 colon) was greater than 100 µM and the GI50 (TK-10 renal) was 5.53 µM. For the same molecule, the TGI (TK-10 renal) was greater than 100 µM, the GI50 (HCT-15 colon) was 0.416 µM and the TGI (HCT-15 colon) was greater than 100 µM. The GI50 (SF-268 CNS) was 2.33 µM and the TGI (SF-268 CNS) was greater than 100 µM.

`COC(=O)[C@H](CCCCNC(=O)OCc1ccccc1)NC(=O)[C@@H](NC(=O)Nc1cc(C(F)(F)F)cc(C(F)(F)F)c1)C(C)C` gave a GI50 (786-0 renal) greater than 10 µM, a TGI (786-0 renal) greater than 10 µM and a GI50 (NCI/ADR-RES ovarian) greater than 10 µM. For the same molecule, the TGI (NCI/ADR-RES ovarian) was greater than 10 µM, the GI50 (HCT-116 colon) was greater than 10 µM and the TGI (HCT-116 colon) was greater than 10 µM. The GI50 (CAKI-1 renal) was greater than 10 µM, the TGI (CAKI-1 renal) was greater than 10 µM and the GI50 (HT29 colon) was greater than 10 µM. The TGI (HT29 colon) was greater than 10 µM, the GI50 (OVCAR-4 ovarian) was greater than 10 µM and the TGI (OVCAR-4 ovarian) was greater than 10 µM. For the same molecule, the GI50 (KM12 colon) was greater than 10 µM, the TGI (KM12 colon) was greater than 10 µM and the GI50 (TK-10 renal) was greater than 10 µM. It also gave a TGI (TK-10 renal) greater than 10 µM, a GI50 (HCT-15 colon) greater than 10 µM and a TGI (HCT-15 colon) greater than 10 µM. The GI50 (SF-268 CNS) was greater than 10 µM and the TGI (SF-268 CNS) was greater than 10 µM.

In the case of `CC[Si](CC)(CC)OC1[C@@H](O[Si](CC)(CC)CC)[C@@H](CNC(=O)NC)O[C@H]1n1cnc2c(NC(=O)Nc3ccccc3)ncnc21` (stereo partly specified), the GI50 (786-0 renal) is reported as 2.96 µM, the TGI (786-0 renal) is reported as 10.7 µM and the GI50 (NCI/ADR-RES ovarian) is reported as 3.96 µM. It also gave a TGI (NCI/ADR-RES ovarian) greater than 100 µM, a GI50 (HCT-116 colon) of 3.26 µM and a TGI (HCT-116 colon) of 15.2 µM. The GI50 (CAKI-1 renal) was 2.76 µM, the TGI (CAKI-1 renal) was 12.2 µM and the GI50 (HT29 colon) was 2.4 µM. The TGI (HT29 colon) was 6.13 µM, the GI50 (OVCAR-4 ovarian) was 3.41 µM and the TGI (OVCAR-4 ovarian) was greater than 100 µM. The GI50 (KM12 colon) was 3.26 µM, the TGI (KM12 colon) was 9.5 µM and the GI50 (TK-10 renal) was 2.65 µM. The TGI (TK-10 renal) was 9.88 µM, the GI50 (HCT-15 colon) was 3.78 µM and the TGI (HCT-15 colon) was greater than 100 µM. For the same molecule, the GI50 (SF-268 CNS) was 4.67 µM and the TGI (SF-268 CNS) was greater than 100 µM.

`NC(=O)c1ncn2c(=O)n(CCCl)nnc12` showed a GI50 (786-0 renal) of 46.4 µM, a TGI (786-0 renal) of 195 µM and a TGI (NCI/ADR-RES ovarian) of 496 µM. The TGI (HCT-116 colon) was 369 µM, the GI50 (CAKI-1 renal) was 91.4 µM and the TGI (CAKI-1 renal) was 548 µM. It also gave a TGI (HT29 colon) of 367 µM, a GI50 (OVCAR-4 ovarian) greater than 69.4 µM and a TGI (OVCAR-4 ovarian) of 437 µM. The GI50 (KM12 colon) was greater than 92.4 µM, the TGI (KM12 colon) was 408 µM and the TGI (TK-10 renal) was 651 µM. For the same molecule, the TGI (HCT-15 colon) was 521 µM, the GI50 (SF-268 CNS) was 10.7 µM and the TGI (SF-268 CNS) was > 45 µM and 709 µM.

`O=C(CC1Sc2ccccc2NC1=O)NNc1ccc(F)cc1` (stereo unspecified) was tested, and the GI50 (786-0 renal) was 29.5 µM, the TGI (786-0 renal) was greater than 100 µM and the GI50 (NCI/ADR-RES ovarian) was 22.5 µM. The TGI (NCI/ADR-RES ovarian) was greater than 100 µM, the GI50 (HCT-116 colon) was 77.3 µM and the TGI (HCT-116 colon) was greater than 100 µM. It also gave a GI50 (CAKI-1 renal) of 42.5 µM, a TGI (CAKI-1 renal) greater than 100 µM and a GI50 (HT29 colon) greater than 100 µM. For the same molecule, the TGI (HT29 colon) was greater than 100 µM, the GI50 (OVCAR-4 ovarian) was greater than 100 µM and the TGI (OVCAR-4 ovarian) was greater than 100 µM. The GI50 (KM12 colon) was 25.2 µM, the TGI (KM12 colon) was greater than 100 µM and the GI50 (TK-10 renal) was greater than 100 µM. The TGI (TK-10 renal) was greater than 100 µM, the GI50 (HCT-15 colon) was 6.76 µM and the TGI (HCT-15 colon) was greater than 100 µM. It also gave a GI50 (SF-268 CNS) of 81 µM and a TGI (SF-268 CNS) greater than 100 µM.
